According to patent publication US20210238139A1, “MODULATORS OF TRYPTOPHAN CATABOLISM” (E-Therapeutics PLC, priority 2018, published 2021):
Read-outs that look alike come from different tables or passages of the source.

Tested on: SK-OV-3 cells
Experiment: Effect of compounds on tryptophan catabolism in SK-OV-3 cell line (inhibition of kynurenine production, LC-MS/MS)
Format: cell-based
Details: SK-OV-3 cell line, 24 h incubation, kynurenine in supernatant by LC-MS/MS, read-out: IC50 Ranges (ic50 values for inhibition of Kynurenine production)
Experimental: SK-OV-3 cells are seeded in 96-well plates in McCoy's 5A medium supplemented with 10% FBS and incubated overnight at 37° C., 5% CO2, 95% humidity. The […] growth medium is replaced with DMEM F-12 medium supplemented with 6 mg/mL L-tryptophan. Compounds are added to the wells and incubated for 24 h at 37° C., 5% CO2, 95% humidity. Compounds are tested at 8 consecutive 3-fold dilutions starting from 30 μM in duplicate. At the end of incubation, concentration of kynurenine in cell supernatants is […] determined by LC-MS/MS. In parallel, cell viability is assessed by measurement of ATP using CellTiter Glo assay (Promega), according to manufacturer's protocol. Inhibition of Kyn production is calculated using the following formula: […] IC50 ranges for compounds of the invention are presented in Table 2, whereby the IC50 ranges are as follows: • A: […]

| Compound | IC50 (Homo sapiens, SK-OV-3, 24 h) [µM] | IC50 [µM] |
| --- | --- | --- |
| N#Cc1ccc(NC(=O)N(Cc2ccc3ncsc3c2)C2CCOCC2)cc1 [Compound 265, 1-(1,3-benzothiazol-6-ylmethyl)-3-(4-cyanophenyl)-1-tetrahydropyran-4-yl-urea] | 1 to 5 | – |
| Cc1ccc(CN(C(=O)Nc2ccc(Cl)cc2)c2ccccn2)o1 [Compound 282, 3-(4-chlorophenyl)-1-[(5-methyl-2-furyl)methyl]-1-(2-pyridyl)urea] | 0.5 to 1 | – |
| Cc1ccc(CN(C(=O)Nc2cccc(C#N)c2)C2CCCC2)o1 [Compound 93, 3-(3-cyanophenyl)-1-cyclopentyl-1-[(5-methyl-2-furyl)methyl]urea] | 1 to 5 | – |
| Cn1ncc2ccc(CN(C(=O)Nc3ccc(C#N)cc3)C3CCC3)cc21 [Compound 217, 3-(4-cyanophenyl)-1-cyclobutyl-1-[(1-methylindazol-6-yl)methyl]urea] | 0.1 to 0.5 | – |
| Cc1ccc(CN(C(=O)Nc2ccc(F)cc2)c2ncco2)o1 [Compound 180, 3-(4-fluorophenyl)-1-[(5-methyl-2-furyl)methyl]-1-oxazol-2-yl-urea] | > 5 | – |
| Cc1ccc(CN(C(=O)Nc2ccc(Cl)cc2)c2nc3ccccc3s2)o1 [Compound 300, 1-(1,3-benzothiazol-2-yl)-3-(4-chlorophenyl)-1-[(5-methyl-2-furyl)methyl]urea] | 1 to 5 | – |
| Cc1ccc(CN(C(=O)Nc2ccc(-c3cnn(CCN(C)C)c3)cc2)C2CCCC2)o1 [Compound 100, 1-cyclopentyl-3-[4-[1-[2-(dimethylamino)ethyl]pyrazol-4-yl]phenyl]-1-[(5-methyl-2-furyl)methyl]urea] | > 5 | – |
| Cc1ccc(CN(C(=O)Nc2ccc(Cl)cc2)c2nccn2C)o1 [Compound 182, 3-(4-chlorophenyl)-1-[(5-methyl-2-furyl)methyl]-1-(1-methylimidazol-2-yl) urea] | 0.1 to 0.5 | – |
| O=C(NCCc1ccccc1)N(Cc1cccs1)C1CCCC1 [Compound 1, 1-cyclopentyl-3-(2-phenylethyl)-1-(2-thienylmethyl)urea] | 1 to 5 | – |
| O=C(Nc1ccc2c(c1)CCC2)N(Cc1cccs1)C1CCCC1 [Compound 9, 1-cyclopentyl-3-indan-5-yl-1-(2-thienylmethyl)urea] | 1 to 5 | – |
| O=C(Nc1ccc(F)cc1)N(Cc1cccs1)C1CCCC1 [Compound 34, 1-cyclopentyl-3-(4-fluorophenyl)-1-(2-thienylmethyl)urea] | 0.1 to 0.5 | – |
| Cc1ccc(NC(=O)N(Cc2cccs2)C2CCCC2)c(C)c1 [Compound 5, 1-cyclopentyl-3-(2,4-dimethylphenyl)-1-(2-thienylmethyl)urea] | 1 to 5 | – |
| Cc1ccc(CN(C(=O)Nc2ccc(C(F)(F)F)nc2)C2CCCC2)o1 [Compound 228, 1-cyclopentyl-1-[(5-methyl-2-furyl)methyl]-3-[6-(trifluoromethyl)-3-pyridyl]urea] | 0.1 to 0.5 | – |
| Cc1ccc(CN(C(=O)Nc2ccc(Cl)cc2)c2ncccn2)o1 [Compound 327, 3-(4-chlorophenyl)-1-[(5-methyl-2-furyl)methyl]-1-pyrimidin-2-yl-urea] | 1 to 5 | – |
| Cc1ccc(CN(C(=O)Nc2ccc(C#N)cc2)c2ncccc2C)o1 [Compound 314, 3-(4-cyanophenyl) [(5-methyl-2-furyl)methyl]-1-(3-methyl-2-pyridyl)urea] | 0.1 to 0.5 | – |
| Cn1nccc1N(Cc1ccnc(C(F)(F)F)c1)C(=O)Nc1ccc(Cl)cc1 [Compound 302, 3-(4-chlorophenyl)-1-(2-methylpyrazol-3-yl)-1-[[2-(trifluoromethyl)-4-pyridyl]methyl]urea] | 1 to 5 | – |
| O=C(Nc1ccc(Cl)cc1)N(Cc1cnccn1)C1CCCC1 [Compound 71, 3-(4-chlorophenyl)-1-cyclopentyl-1-(pyrazin-2-ylmethyl)urea] | 0.5 to 1 | – |
| Cc1ccc(CN(C(=O)Nc2ccc(O)cc2)C2CCCC2)o1 [Compound 303, 1-cyclopentyl-3-(4-hydroxyphenyl)-1-[(5-methyl-furyl)methyl]urea] | > 5 | – |
| N#Cc1cncc(CN(C(=O)Nc2ccc(Cl)cc2)C2CCCC2)c1 [Compound 115, 3-(4-chlorophenyl)-1-[(5-cyano-3-pyridyl)methyl]-1-cyclopentyl-urea] | 0.1 to 0.5 | – |
| CC(=O)N1CCC(C)(CN(C(=O)Nc2ccccc2)C2CCCC2)CC1 [Compound 97, 1-[(1-acetyl-4-methyl-4-piperidyl)methyl]-1-cyclopentyl-3-phenyl-urea] | 1 to 5 | – |
| COC1CC(N(Cc2ccc(C)o2)C(=O)Nc2ccc(C#N)cc2)C1 (stereo not shown) [Compound 216, 3-(4-cyanophenyl)-1-(3-methoxycyclobutyl)-1-[(5-methyl-2-furyl)methyl]urea] | < 0.1 | – |
| O=C(Nc1ccccc1)N(Cc1ccoc1)C1CCCC1 [Compound 64, 1-cyclopentyl-1-(3-furylmethyl)-3-phenyl-urea] | 1 to 5 | – |

| Compound | IC50 (Homo sapiens, SK-OV-3, 24 h) [µM] | IC50 [µM] |
| --- | --- | --- |
| Cc1ccc(CN(C(=O)Nc2ccc(C#N)cc2)c2nccn2C)o1 [Compound 233, 3-(4-cyanophenyl)-1-[(5-methyl-2-furyl)methyl]-1-(1-methylimidazol-2-yl)urea] | 1 to 5 | – |
| O=C(Nc1cc(Cl)nc(Cl)c1)N(Cc1cccs1)C1CCCC1 [Compound 10, 1-cyclopentyl-3-(2,6-dichloro-4-pyridyl)-1-(2-thienylmethyl)urea] | 1 to 5 | – |
| Cc1ccc(CN(C(=O)Nc2ccc(Cl)cc2)c2c(C)noc2C)o1 [Compound 238, 3-(4-chlorophenyl)-1-(3,5-dimethylisoxazol-4-yl)-1-[(5-methyl-2-furyl)methyl]urea] | 0.1 to 0.5 | – |
| O=C(Nc1ccc(Cl)cc1Cl)N(Cc1cccs1)C1CCCC1 [Compound 59, 1-cyclopentyl-3-(2,4-dichlorophenyl)-1-(2-thienylmethyl)urea] | 0.5 to 1 | – |
| N#Cc1ccc(NC(=O)N(Cc2ccc3nsnc3c2)C2CCC2)cc1 [Compound 255, 1-(2,1,3-benzothiadiazol-5-ylmethyl)-3-(4-cyanophenyl)-1-cyclobutyl-urea] | 0.1 to 0.5 | – |
| Cc1nocc1N(Cc1cccc(C#N)n1)C(=O)Nc1ccc(Cl)cc1 [Compound 313, 3-(4-chlorophenyl)-1-[(6-cyano-2-pyridyl)methyl]-1-(3-methylisoxazol-4-yl)urea] | 0.1 to 0.5 | – |
| O=C(Nc1ccc(Cl)cc1)N(Cc1cc2ncccc2o1)C1CCC1 [Compound 252, 3-(4-chlorophenyl)-1-cyclobutyl-1-(furo[3,2-b]pyridin-2-ylmethyl)urea] | > 5 | – |
| Cc1ncc(CN(C(=O)Nc2ccc(C#N)cc2)C2CCCC2)o1 [Compound 291, 3-(4-cyanophenyl)-1-cyclopentyl-1-[(2-methyloxazol-5-yl)methyl]urea] | 0.5 to 1 | – |
| Cc1ccc(CN(C(=O)Nc2ccc(Cl)cc2)c2cnoc2)o1 [Compound 305, 3-(4-chlorophenyl)-1-isoxazol-4-yl-1-[(5-methyl-2-furyl)methyl]urea] | < 0.1 | – |
| O=C(NCc1sccc1Cl)Nc1cccc(Cl)c1 [Compound 204, 1-(3-chlorophenyl)-3-[(3-chloro-2-thienyl)methyl]urea] | > 5 | – |
| O=C(Nc1ccccc1)N(Cc1cccs1)C1CCCC1 [Compound 19, 1-cyclopentyl-3-phenyl-1-(2-thienylmethyl)urea] | – | 0.5 to 1 |
| Cc1ccc(CN(C(=O)Nc2ccc(Cl)cc2)C2CC3(COC3)C2)o1 [Compound 286, 3-(4-chlorophenyl)-1-[(5-methyl-2-furyl)methyl]-1-(2-oxaspiro[3.3]heptan-6-yl)urea] | 1 to 5 | – |
| Cc1ccc(CN(C(=O)Nc2ccc(Cl)cc2)c2cncn2C)o1 [Compound 242, 3-(4-chlorophenyl)-1-[(5-methyl-2-furyl)methyl]-1-(3-methylimidazol-4-yl) urea] | – | 0.1 to 0.5 |
| Cc1ccc(CN(C(=O)Nc2ccc(C#N)cc2)C2CCC(C#N)C2)o1 (stereo not shown) [Compound 224, 1-(3-cyanocyclopentyl)-3-(4-cyanophenyl)-1-[(5-methyl-2-furyl)methyl]urea] | 0.1 to 0.5 | – |
| Cc1nocc1N(Cc1cccc(C(F)(F)F)c1)C(=O)Nc1ccc(-n2cc(CO)nn2)cc1 [Compound 308, 3-[4-[4-(hydroxymethyl)triazol-1-yl]phenyl]-1-(3-methylisoxazol-4-yl)-1-[[3-(trifluoromethyl)phenyl]methyl]urea] | 0.5 to 1 | – |
| Cc1ccc(CN(C(=O)Nc2ccc(C#CCc3ccccc3)cc2)C2CCCC2)o1 [Compound 156, 1-cyclopentyl-1-[(5-methyl-2-furyl)methyl]-3-[4-(3-phenylprop-1-ynyl)phenyl]urea] | 0.5 to 1 | – |
| Cc1ccc(CN(C(=O)Nc2ccc(C#N)cc2)C2CC(F)C2)o1 (stereo not shown) [Compound 208, 3-(4-cyanophenyl)-1-(3-fluorocyclobutyl)-1-[(5-methyl-2-furyl)methyl]urea] | 0.5 to 1 | – |
| O=C(Nc1ccc(Cl)cc1)N(Cc1ccccn1)C1CCCC1 [Compound 69, 3-(4-chlorophenyl)-1-cyclopentyl-1-(2-pyridylmethyl)urea] | 0.1 to 0.5 | – |
| Cc1ncc(CN(C(=O)Nc2ccc(C#N)cc2)c2conc2C)o1 [Compound 316, 3-(4-cyanophenyl)-(3-methylisoxazol-4-yl)-1-[(2-methyloxazol-5-yl)methyl]urea] | > 5 | – |
| Cc1ccc(CN(C(=O)Nc2ccc(C#CCO)cc2)c2nccn2C)o1 [Compound 309, 3-[4-(3-hydroxyprop-ynyl)phenyl]-1-[(5-methyl-2-furyl)methyl]-1-(1-methylimidazol-2-yl)urea] | 0.1 to 0.5 | – |
| Cc1nocc1N(CC1CCC2(CC1)COC2)C(=O)Nc1ccc(C#N)cc1 [Compound 325, 3-(4-cyanophenyl)-(3-methylisoxazol-4-yl)-1-(2-oxaspiro[3.5]nonan-7-ylmethyl)urea] | > 5 | – |
